Measured values published in patent US20140221378A1, “SUBSTITUTED SPIROPYRIDO[1,2-a]PYRAZINE DERIVATIVE AND PHARMACEUTICAL USE OF SAME AS HIV INTEGRASE INHIBITOR” (priority 2012, published 2014).
Structures can show the parent of a compound that is named as a salt. Where two headings read alike, the source gives them in different places.

Test system: HIV-1 NL4-3 strain
Test: Antiviral activity in acute infection system of MT-4 cell with HIV-1 NL4-3 strain (Cell Titer-Glo)
Format: cell-based
[1] = antiviral activity, MT-4 cells infected with HIV-1 NL4-3 strain, MOI 0.05, 5 days culture, Cell Titer-Glo luminescence, read-out: EC50

Compound: CO[C@H]1C[C@]2(CN(C)C(=O)c3c(O)c(=O)c(C(=O)NCc4cccc(Cl)c4F)cn32)C1 [Example 1, N-(3-chloro-2-fluorobenzyl)-9′-hydroxy-cis-3-methoxy-2′-methyl-1′,8′-dioxo-1′,2′,3′,8′-tetrahydrospiro[cyclobutane-1,4′-pyrido[1,2-a]pyrazine]-7′-carboxamide hydrochloride]
- EC50 (Human immunodeficiency virus 1, NL43, MT4, 120 h, antiviral activity, MT-4 cells infected with HIV-1 NL4-3 strain, MOI 0.05, 5 days culture, Cell Titer-Glo luminescence): 3.1 nM

Compound: CO[C@H]1C[C@]2(Cn3cc(C(=O)NCc4cccc(Cl)c4F)c(=O)c(O)c3C(=O)N2C)C1 [Example S63, N-(3-chloro-2-fluorobenzyl)-9′-hydroxy-cis-3-methoxy-2′-methyl-1′,8′-dioxo-1′,2′,4′,8′-tetrahydrospiro[cyclobutane-1,3′-pyrido[1,2-a]pyrazine]-7′-carboxamide hydrochloride]
- EC50 (Human immunodeficiency virus 1, NL43, MT4, 120 h, antiviral activity, MT-4 cells infected with HIV-1 NL4-3 strain, MOI 0.05, 5 days culture, Cell Titer-Glo luminescence, read-out: EC50): 4 nM

Compound: N-(3-chloro-2-fluorobenzyl)- 2′-ethyl-9′-hydroxy-trans-3- (hydroxymethyl)-1′,8′-dioxo- 1′,2′,4′,8′- tetrahydrospiro[cyclobutane- 1,3′-pyrido[1,2-a]pyrazine]- 7′-carboxamide hydrochloride [Example S58]
- EC50 [1]: 6.8 nM

Compound: cis-3-(benzyloxy)-N-(2,4- difluorobenzyl)-9′-hydroxy- 2′-isopropyl-1′,8′-dioxo- 1′,2′,3′,8′- tetrahydrospiro[cyclobutane- 1,4′-pyrido[1,2-a]pyrazine]- 7′-carboxamide hydrochloride [Example S2]
- EC50 [1]: 10 nM

Compound: CCN1C[C@@]2(C[C@@H]2COC)n2cc(C(=O)NCc3cccc(C(F)(F)F)c3F)c(=O)c(O)c2C1=O [Example T27, (1S, 2S)-2′-ethyl-N-(2-fluoro-3-(trifluoromethyl)benzyl)-9′-hydroxy-2-(methoxymethyl)-1′,8′-dioxo-1′,2′,3′,8′-tetrahydrospiro[cyclopropane-1,4′-pyrido[1,2-a]pyrazine]-7′-carboxamide]
- EC50 (Human immunodeficiency virus 1, NL43, MT4, antiviral activity, MT-4 cells acutely infected with HIV-1 NL4-3 strain (wild type), Cell Titer-Glo, read-out: EC50): 97 nM
